# Measured values published in patent publication US5187166A, “Azabicyclo derivatives and their use as antiemetics” (Nisshin Flour Milling Co., Ltd., priority 1990, dated 1993).
# Test system: 5-HT3 receptors
# Assay: antagonism of the von Bezold-Jarisch reflex (bradycardia) induced by 5-HT in the anaesthetised rat
# Type: in vivo
# Conditions: i.v., hydrochloride salt, 5 min before 5-HT 30 μg/kg, urethane-anaesthetised rats
# Description: Temporary bradycardia is induced by administration of 5-HT (serotonin) to anaesthetised rats via jugular vein (von Bezold Jarisch Reflex) (A. S. Paintal, Physiol. Rev., 53, 159-210 (1973)).
# The compounds of the present invention were evaluated for antagonism of the von Bezold-Jarisch reflex induced by 5-HT in the anaesthetised rat according to the following method.
# Rats were anaesthetised with urethane (1 g/kg, intraperitoneally) and blood pressure and heart rate recorded from left femoral artery. Percent inhibition was calculated from bradycardia induced by 5-HT (30 μg/kg) given 5 minutes following intrajugular administration of a compound of the invention, taking the bradycardia induced by the intrajugular administration of 5-HT. The compounds of the present invention were tested in the form of their hydrochloride salts.
SMILES,Percent Inhibition (0.1 μg/kg) [%],Percent Inhibition (1.0 μg/kg) [%],Percent Inhibition (10 μg/kg) [%]
"CN1[C@@H]2CSC[C@H]1C[C@@H](OC(=O)c1c[nH]c3ccccc13)C2 [Example 1, (Endo-9-methyl-3-thia-9-azabicyclo[3.3.1]non-7-yl) 1H-indole-3-carboxylate]",51,85,
"CN1[C@@H]2COC[C@H]1C[C@@H](OC(=O)c1c[nH]c3ccccc13)C2 [Example 2, (Endo-9-methyl-3-oxa-9-azabicyclo[3.3.1]non-7-yl) 1H-indole-3-carboxylate]",54,93,
"CN1[C@@H]2CSC[C@H]1C[C@@H](OC(=O)c1nn(C)c3ccccc13)C2 [Example 3, (Endo-9-methyl-3-thia-9-azabicyclo[3.3.1]non-7-yl) 1-methylindazole-3-carboxylate]",43,67,
"CN1[C@@H]2COC[C@H]1C[C@@H](OC(=O)c1nn(C)c3ccccc13)C2 [Example 4, (Endo-9-methyl-3-oxa-9-azabicyclo[3.3.1]non-7-yl) 1-methylindazole-3-carboxylate]",59,80,
"COc1cc(N)c(Cl)cc1C(=O)O[C@H]1C[C@H]2CSC[C@@H](C1)N2C [Example 5, (Endo-9-methyl-3-thia-9-azabicyclo[3.3.1]non-7-yl) 4-amino-5-chloro-2-methoxy benzoate]",,,58
"CN1[C@@H]2COC[C@H]1C[C@@H](NC(=O)c1c[nH]c3ccccc13)C2 [Example 7, Endo-9-methyl-3-oxa-9-azabicyclo[3.3.1]non-7-yl 1H-indole-3-carboxamide]",,36,72
"CN1C[C@H]2C[C@@H](OC(=O)c3c[nH]c4ccccc34)C[C@@H](C1)N2C [Example 9, (Endo-3,9-dimethyl-3,9-diazabicyclo[3.3.1]non-7-yl) 1H-indole-3-carboxylate]",28,58,91
"CN1C[C@H]2C[C@@H](NC(=O)c3c[nH]c4ccccc34)C[C@@H](C1)N2C [Example 11, Endo-3,9-dimethyl-3,9-diazabicyclo[3.3.1]non-7-yl 1H-indole-3-carboxamide]",,39,79
"CN1C[C@H]2C[C@@H](NC(=O)c3nn(C)c4ccccc34)C[C@@H](C1)N2C [Example 12, Endo-3,9-dimethyl-3,9-diazabicyclo[3.3.1]non-7-yl 1-methylindazole-3-carboxamide]",25,71,
CN1C[C@H]2C[C@@H](NC(=O)c3n[nH]c4ccccc34)C[C@@H](C1)N2C [Example 13],,28,95
"CCn1nc(C(=O)N[C@@H]2C[C@@H]3CN(C)C[C@H](C2)N3C)c2ccccc21 [Example 15, Endo-3,9-dimethyl-3,9-diazabicyclo[3.3.1]non-7-yl 1-ethylindazole-3-carboxamide]",42,91,
"CC(C)n1nc(C(=O)N[C@@H]2C[C@@H]3CN(C)C[C@H](C2)N3C)c2ccccc21 [Example 16, Endo-3,9-dimethyl-3,9-diazabicyclo[3.3.1]non-7-yl 1-(2-propyl)indazole-3-carboxamide]",59,,
"CN1C[C@H]2C[C@@H](NC(=O)c3nn(Cc4ccccc4)c4ccccc34)C[C@@H](C1)N2C [Example 17, Endo-3,9-dimethyl-3,9-diazabicyclo[3.3.1]non-7-yl 1-benzylindazole-3-carboxamide]",43,91,
"CCCCCCCCn1nc(C(=O)N[C@@H]2C[C@@H]3CN(C)C[C@H](C2)N3C)c2ccccc21 [Example 18, Endo-3,9-dimethyl-3,9-diazabicyclo[3.3.1]non-7-yl 1-(n-octyl)indazole-3-carboxamide]",,15,
"CN(C)CCn1nc(C(=O)N[C@@H]2C[C@@H]3CN(C)C[C@H](C2)N3C)c2ccccc21 [Example 19, Endo-3,9-dimethyl-3,9-diazabicyclo[3.3.1]non-7-yl 1-[2-(dimethylamino)ethyl]indazole-3-carboxamide]",,10,
"COc1cc(N)c(Cl)cc1C(=O)N[C@@H]1C[C@@H]2CN(C)C[C@H](C1)N2C [Example 22, Endo-3,9-dimethyl-3,9-diazabicyclo[3.3.1]non-7-yl 4-amino-5-chloro-2-methoxyphenylcarboxyamide]",,43,89
